Test results as given in patent publication US12209145B2, “PCSK9 antagonist compounds” (Merck Sharp & Dohme LLC, priority 2018, dated 2025).

Legend:
Type in all cases: binding
PCSK9 [1] = target: T1, PCSK9 (Homo sapiens, UniProt Q8NBP7); test: PCSK9 Alexa FRET Ultra TR-FRET assay (displacement of AlexaFluor647 tagged cyclic peptide); conditions: Ki Ultra, 0.5 nM biotinylated PCSK9, 960 nM AF cyclic peptide; Ki calculated from IC50 and KD of AF peptide
T1 construct: Biotinylated PCSK9 was obtained commercially; purchased
T1 sequence (Q8NBP7 153-692): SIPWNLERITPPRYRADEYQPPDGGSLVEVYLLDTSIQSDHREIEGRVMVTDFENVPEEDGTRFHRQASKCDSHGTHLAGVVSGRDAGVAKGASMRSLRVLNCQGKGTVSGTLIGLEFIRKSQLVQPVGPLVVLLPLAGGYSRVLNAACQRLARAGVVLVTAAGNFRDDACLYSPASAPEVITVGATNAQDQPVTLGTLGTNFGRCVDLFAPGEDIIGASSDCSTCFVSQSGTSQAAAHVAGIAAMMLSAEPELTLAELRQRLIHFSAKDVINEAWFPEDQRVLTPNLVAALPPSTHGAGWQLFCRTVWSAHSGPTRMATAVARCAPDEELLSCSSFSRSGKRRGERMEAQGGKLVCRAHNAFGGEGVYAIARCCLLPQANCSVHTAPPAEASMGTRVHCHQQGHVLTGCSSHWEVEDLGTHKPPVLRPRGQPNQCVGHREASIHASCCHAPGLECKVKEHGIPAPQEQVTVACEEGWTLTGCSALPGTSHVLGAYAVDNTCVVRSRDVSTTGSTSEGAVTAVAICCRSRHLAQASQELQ
Method in brief: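 Biotinylated PCSK9 (0.5 nM final) with 1.25 nM Strep-Eu and 960 nM AlexaFluor-tagged cyclic peptide in HEPES pH 7.4, NaCl, CaCl2, BSA, P20; ≥2 h at room temperature. IC50 from sigmoidal fit, converted to Ki (nM) using peptide KD; falling Eu counts flag false positives.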

PCSK9 [2] = target: T1, PCSK9; test: PCSK9 Alexa FRET Plus TR-FRET assay (displacement of AlexaFluor647 tagged cyclic peptide Reagent B); conditions: Ki Plus, 0.5 nM biotinylated PCSK9, 960 nM AF cyclic peptide Reagent B; Ki calculated from IC50 and KD of AF peptide
Method in brief: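 TR-FRET displacement using 0.5 nM biotinylated PCSK9 with 1.25 nM streptavidin-Eu and 960 nM AlexaFluor-tagged cyclic peptide in pH 7.4 HEPES with CaCl2, at least 2 h at RT. IC50 from sigmoidal fit, converted to Ki using the peptide KD; falling Eu counts flag false positives.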

PCSK9 [3] = target: T1, PCSK9; test: PCSK9 Alexa FRET Standard TR-FRET assay (displacement of AlexaFluor647 tagged cyclic peptide Reagent A)
Procedure: The following is a description of the assays used to determine activity of compounds of the invention, and any comparator compounds reported, toward PCSK9 antagonism. Biotinylated PCSK9 was obtained commercially.
Alexa FRET Standard TR-FRET
A solution containing 1 nM biotinylated PCSK9+2.5 nM Lance Streptavidin Europium (Strep-Eu) is made in 50 mM HEPES pH 7.4, 0.15 M NaCl, 5 mM CaCl2, 0.01% BSA, and 0.01% Surfactant P20. A separate solution containing 40 nM of the AlexaFluor tagged cyclic peptide is made in the same buffer system. An Echo is used to transfer 0.750 ul of compound to an assay plate followed by the addition of 15 ul of PCSK9+Stept-Eu and 15 ul of AF peptide. The final assay volume is 30.750 ul containing 0.5 nM PCSK9, 1.25 nM Strep-Eu, and 20 nM AF cyclic peptide. The reaction is incubated at room temperature for at least two hours prior to fluorescence measurements using an Envision Multilabel Reader. […] values are determined by fitting data to a sigmoidal dose-response curve using nonlinear regression. Ki is then calculated from the IC50 and the KD of AF cyclic peptide. Counts (B-counts) of the europium-labeled PCSK9 are followed to observe if compounds are adversely PCSK9. A fall off of the B-counts likely indicates a false positive of inhibition. Data from this procedure is reported as “A=‘numerical value’ (nanomolar)”
Activity data obtained by one or both of the above-described procedures is reported for selected example compounds of the invention in the following format: Example No.: A (standard TR Fret)=‘numerical value’; P (Alexa Fret plus standard TR Fret)=‘numerical value’/, note that all values reported are nanomolar.

Row | SMILES | Ki (PCSK9 [1]) | Ki (PCSK9 [2]) | Ki (PCSK9 [3])
1 | COc1ccc(C[C@@H]2NC(=O)[C@H]([C@@H](C)O)NC(=O)[C@@H]3[C@@H]4CCN3C(=O)[C@@H]3Cc5cn(c6ccc(F)cc56)CCCCCCN(Cc5ccc(cc5)CCNC(=O)[C@]5(C)CCCN5C2=O)C(=O)CCC(=O)N[C@@H](C)C(=O)N[C@H](CNC(=O)CCOCCOCCCN(C)C)C(=O)N[C@@H](Cc2cccc(c2)CNC(=O)CO4)C(=O)N3)cc1 [Ex-50] | 4.43 pM | 10.5 pM | < 1260 pM
2 | COc1ccc(C[C@@H]2NC(=O)[C@H]([C@@H](C)O)NC(=O)[C@@H]3[C@@H]4CCN3C(=O)[C@@H]3Cc5cn(c6ccc(F)cc56)C/C=C/CCCN(Cc5ccc(cc5)CCNC(=O)[C@]5(C)CCCN5C2=O)C(=O)CCC(=O)N[C@@H](C)C(=O)N[C@H](CN)C(=O)N[C@@H](Cc2cccc(c2)CNC(=O)CO4)C(=O)N3)cc1 [Ex-51] | 5.97 pM | < 5.58 pM | < 1260 pM
3 | COc1ccc(C[C@@H]2NC(=O)[C@H]([C@@H](C)O)NC(=O)[C@@H]3[C@@H]4CCN3C(=O)[C@@H]3Cc5cn(c6ccc(F)cc56)C/C=C/CCCN(Cc5ccc(cc5)CCNC(=O)[C@]5(C)CCCN5C2=O)C(=O)CCC(=O)N[C@@H](C)C(=O)N[C@H](CNC(=O)CCOCCOCC[N+](C)(C)C)C(=O)N[C@@H](Cc2cccc(c2)CNC(=O)CO4)C(=O)N3)cc1 [Ex-52] | 3.59 pM | < 5.58 pM | < 1260 pM
4 | COc1ccc(C[C@@H]2NC(=O)[C@H]([C@@H](C)O)NC(=O)[C@@H]3[C@@H]4CCN3C(=O)[C@@H]3Cc5cn(c6ccc(F)cc56)C/C=C/COc5cc(ccc5CNC(=O)CCC(=O)N[C@@H](C)C(=O)N[C@H](CN)C(=O)N[C@@H](Cc5cccc(c5)CNC(=O)CO4)C(=O)N3)CCNC(=O)[C@]3(C)CCCN3C2=O)cc1 [Ex-53] | 215 pM | 96.3 pM | < 1260 pM
5 | COc1ccc(C[C@@H]2NC(=O)[C@H]([C@@H](C)O)NC(=O)[C@@H]3[C@@H]4CCN3C(=O)[C@@H]3Cc5cn(c6ccc(F)cc56)CCCCOc5cc(ccc5CNC(=O)CCC(=O)N[C@@H](C)C(=O)N[C@H](CN)C(=O)N[C@@H](Cc5cccc(c5)CNC(=O)CO4)C(=O)N3)CCNC(=O)[C@]3(C)CCCN3C2=O)cc1 [Ex-54] | 484 pM | 367 pM | < 1260 pM
6 | COc1ccc(C[C@@H]2NC(=O)[C@H]([C@@H](C)O)NC(=O)[C@@H]3[C@@H]4CCN3C(=O)[C@@H]3Cc5cn(c6ccc(F)cc56)CCCCOc5cc(ccc5CNC(=O)CCC(=O)N[C@@H](C)C(=O)N[C@H](CNC(=O)CCOCCOCC[N+](C)(C)C)C(=O)N[C@@H](Cc5cccc(c5)CNC(=O)CO4)C(=O)N3)CCNC(=O)[C@]3(C)CCCN3C2=O)cc1 [Ex-55] | 238 pM | 72.4 pM | < 1260 pM
7 | COc1ccc(C[C@@H]2NC(=O)[C@H]([C@@H](C)O)NC(=O)[C@@H]3[C@@H]4CCN3C(=O)[C@@H]3Cc5cn(c6ccc(F)cc56)CCCCCCN(Cc5ccc(cc5)CCNC(=O)[C@]5(C)CCCN5C2=O)C(=O)CCC(=O)N[C@@H](C)C(=O)N[C@H](CNC(=O)Cc2cccc(OCCC[N+](C)(C)C)c2)C(=O)N[C@@H](Cc2cccc(c2)CNC(=O)CO4)C(=O)N3)cc1 [Ex-56] | 4.81 pM | 22.4 pM | < 1260 pM
8 | COCCC[N+](C)(C)CCCCCC(=O)NC[C@H]1NC(=O)[C@H](C)NC(=O)CCC(=O)N2CCCCCCn3cc(c4cc(F)ccc43)C[C@@H]3NC(=O)[C@H](Cc4cccc(c4)CNC(=O)CO[C@H]4CCN(C3=O)[C@@H]4C(=O)N[C@@H]([C@@H](C)O)C(=O)N[C@@H](Cc3ccc(OC)cc3)C(=O)N3CCC[C@@]3(C)C(=O)NCCc3ccc(cc3)C2)NC1=O [Ex-57] | 1.62 pM | < 5.58 pM | < 1260 pM
9 | COCC[N+](C)(C)CCCCCC(=O)NC[C@H]1NC(=O)[C@H](C)NC(=O)CCC(=O)N2CCCCCCn3cc(c4cc(F)ccc43)C[C@@H]3NC(=O)[C@H](Cc4cccc(c4)CNC(=O)CO[C@H]4CCN(C3=O)[C@@H]4C(=O)N[C@@H]([C@@H](C)O)C(=O)N[C@@H](Cc3ccc(OC)cc3)C(=O)N3CCC[C@@]3(C)C(=O)NCCc3ccc(cc3)C2)NC1=O [Ex-58] | 1.96 pM | 7.73 pM | < 1260 pM
